Source: patent US11364277B2, “Treatment of ascites” (BioVie Inc., priority 2015, dated 2022)
Values joined by “and” are separate entries in the source; they are usually repeats but may differ in a detail not shown here. Identical values can stand only once. Where a SMILES comes first, the peptide text is derived from it. Bridges are numbered along the chain shown (N, C = ends).

Assays:
[1] = human, in vivo, cited from earlier work
[2] = test system: subjects with ascites due to liver cirrhosis, not type 1 or type 2 HRS; assay type: in vivo, human
Procedure: 15 subjects that are to be confirmed to have ascites, but not type 1 or type 2 HRS, due to liver cirrhosis will be administered continuous low dose (escalating from 2.0 to 3.0 mg per 24 hours) terlipressin via ambulatory infusion pump. […] Accordingly, continuous infusion pump (CIP) terlipressin represents a potentially life-saving solution for these seriously ill patients who are still ambulatory (have not yet been administered to the hospital for treatment) and have not developed type 1 or type 2 HRS.

[3] = test system: HRS patients with diuretic intractable or refractory ascites; assay: Example 2: six HRS patients with ascites treated with continuous infusion terlipressin, evaluated before, during and after treatment; assay type: in vivo, human; settings: for Body Weight After / Plasma Sodium After / Serum Creatinine After / Serum Urea After: after treatment;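 as to Serum Urea After: serum urea in mmol/L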;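 as to Serum Urea During: serum urea in mmol/L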
Procedure: Six FIRS patients treated with continuous infusion terlipressin were evaluated for improvement in […]. All six patients had diuretic intractable or refractory ascites (5 of 6 with hyponatremia). The patients were evaluated for the following parameters before, during and after treatment: number of paracentesis procedures per month, volume of ascites removed, weight, serum sodium, urinary sodium excretion, serum creatinine, serum urea, and whether diuretics were included in the treatment regimen.

[4] = human, in vivo; cited from earlier work
[5] = Average (excludes patients #2, #3, #5)
[6] = Patient 1, max. dose 12 mg/day, 63 days
[7] = Patient 1, max. dose 12 mg/day, 63 days, diuretics during: A
[8] = Patient 2, max. dose 12 mg/day, 195 days
[9] = Patient 2, max. dose 12 mg/day, 195 days, diuretics during: None
[10] = Patient 3, max. dose 3 mg/day, 10 days
[11] = Patient 3, max. dose 3 mg/day, 10 days, diuretics during: None
[12] = Patient 4, max. dose 10 mg/day, 11 days
[13] = Patient 4, max. dose 10 mg/day, 11 days, diuretics during: None
[14] = Patient 5, max. dose 3 mg/day, 22 days
[15] = Patient 5, max. dose 3 mg/day, 22 days, diuretics during: None
[16] = Patient 6, max. dose 2 mg/day, 12 days
[17] = Patient 6, max. dose 2 mg/day, 12 days, diuretics during: F + A

Structure (SMILES): NCCCC[C@H](NC(=O)[C@@H]1CCCN1C(=O)[C@@H]1CSSC[C@H](NC(=O)CNC(=O)CNC(=O)CN)C(=O)N[C@@H](Cc2ccc(O)cc2)C(=O)N[C@@H](Cc2ccccc2)C(=O)N[C@@H](CCC(N)=O)C(=O)N[C@@H](CC(N)=O)C(=O)N1)C(=O)NCC(N)=O [terlipressin] (H-GGGCYFQNCPKG-NH2; disulfide 4-9)
- patients with side effects ([1]; iv): up to 40%
- patients with severe side effects requiring discontinuation of treatment [1]: up to 10%
- severity of ascites and accumulation of ascites fluid ([2]; 2.0 to 3.0 mg per 24 hours escalating, 1 day to 28 days, expected): decrease the severity of ascites and the accumulation of ascites fluid
- average amount of fluid withdrawn after beginning therapy ([2]; compared to prior to the start of treatment, expected): significantly less than prior to the start of treatment
- number of paracentesis procedures required over a 28-day period ([2]; compared to the 28-day period prior to treatment inception, expected): reduce the number of paracentesis procedures
- safety of continuous infusion pump terlipressin ([2]; human, in vivo): no serious side effects
- Plasma Sodium % Change ([3]; Average): 5%
- Plasma Sodium During ([3]; Average): 135 mEq/L
- Serum Creatinine % Change ([3]; Average): −47%
- Serum Creatinine During ([3]; Average): 127 µM
- Serum Urea % Change ([3]; Average): −45%
- Serum Urea During ([3]; Average): 15.1 mmol/L
- Body Weight % Change ([3]; Average (excludes Patient #4)): −11%
- Body Weight During ([3]; Average (excludes Patient #4)): 73 kg
- Body Weight After ([3]; Average (excludes Patient #4)): 87 kg
- Paracenteses/Month % Change ([3]; Average (excludes patient #1)): −32%
- Volume Fluid Removed/Month % Change ([3]; Average (excludes patient #1)): −55%
- Volume Fluid Removed/Month During ([3]; Average (excludes patient #1)): 14 L
- Urinary Na over 24 hours % Change [3, 5]: 1632%
- Urinary Na over 24 hours During [3, 5]: 127 mEq/24 hr
- Plasma Sodium After ([3]; Average): 136 mEq/L
- Serum Creatinine After ([3]; Average): 105 µM
- Serum Urea After ([3]; Average): 10.4 mmol/L
- Plasma Sodium % Change [3, 6]: −2%
- Plasma Sodium During [3, 6]: 137 mEq/L
- Serum Creatinine % Change [3, 6]: −24%
- Serum Creatinine During [3, 6]: 189 µM
- Serum Urea % Change [3, 6]: −72%
- Serum Urea During [3, 6]: 8.8 mmol/L
- Urinary Na over 24 hours % Change [3, 6]: 820%
- Urinary Na over 24 hours During [3, 6]: 46 mEq/24 hr
- Body Weight After [3, 6]: 74 kg
- Body Weight % Change [3, 7]: −11%
- Body Weight During [3, 7]: 74 kg
- Paracenteses/Month % Change [3, 7]: −100%
- Paracenteses/Month During [3, 7]: 0 /Month
- Plasma Sodium % Change [3, 8]: 2%
- Plasma Sodium During [3, 8]: 128 mEq/L
- Serum Creatinine % Change [3, 8]: −46%
- Serum Creatinine During [3, 8]: 208 µM
- Serum Urea % Change [3, 8]: −37%
- Serum Urea During [3, 8]: 23.2 mmol/L
- Urinary Na over 24 hours During [3, 8]: 301 mEq/24 hr
- Body Weight % Change [3, 9]: 11%
- Body Weight During [3, 9]: 71 kg
- Paracenteses/Month % Change [3, 9]: −25%
- Paracenteses/Month During [3, 9]: 6 /Month
- Volume Fluid Removed/Month % Change [3, 9]: −48%
- Volume Fluid Removed/Month During [3, 9]: 42 L
- Plasma Sodium % Change [3, 10]: 2%
- Plasma Sodium During [3, 10]: 136 mEq/L
- Serum Creatinine % Change [3, 10]: −50%
- Serum Creatinine During [3, 10]: 116 µM
- Serum Urea % Change [3, 10]: −46%
- Serum Urea During [3, 10]: 9.1 mmol/L
- Body Weight After [3, 10]: 128 kg
- Plasma Sodium After [3, 10]: 140 mEq/L
- Serum Creatinine After [3, 10]: 122 µM
- Serum Urea After [3, 10]: 10.8 mmol/L
- Body Weight % Change [3, 11]: −23%
- Body Weight During [3, 11]: 99 kg
- Paracenteses/Month % Change [3, 11]: −50%
- Paracenteses/Month During [3, 11]: 2 /Month
- Volume Fluid Removed/Month % Change [3, 11]: −65%
- Volume Fluid Removed/Month During [3, 11]: 14 L
- Plasma Sodium % Change [3, 12]: 15%
- Plasma Sodium During [3, 12]: 141 mEq/L
- Serum Creatinine % Change [3, 12]: −67%
- Serum Creatinine During [3, 12]: 104 µM
- Serum Urea % Change [3, 12]: −28%
- Serum Urea During [3, 12]: 37.3 mmol/L
- Urinary Na over 24 hours % Change [3, 12]: 1900%
- Urinary Na over 24 hours During [3, 12]: 20 mEq/24 hr
- Paracenteses/Month % Change [3, 13]: 50%
- Paracenteses/Month During [3, 13]: 3 /Month
- Volume Fluid Removed/Month % Change [3, 13]: −36%
- Volume Fluid Removed/Month During [3, 13]: 9 L
- Plasma Sodium % Change [3, 14]: −2%
- Plasma Sodium During [3, 14]: 128 mEq/L
- Serum Creatinine % Change [3, 14]: −19%
- Serum Creatinine During [3, 14]: 55 µM
- Serum Urea % Change [3, 14]: −17%
- Serum Urea During [3, 14]: 5.3 mmol/L
- Body Weight After [3, 14]: 77 kg
- Serum Creatinine After [3, 14]: 55 µM
- Serum Urea After [3, 14]: 10.5 mmol/L
- Body Weight % Change [3, 15]: −10%
- Body Weight During [3, 15]: 64 kg
- Paracenteses/Month % Change [3, 15]: −33%
- Paracenteses/Month During [3, 15]: 2 /Month
- Volume Fluid Removed/Month % Change [3, 15]: −71%
- Volume Fluid Removed/Month During [3, 15]: 6 L
- Plasma Sodium % Change [3, 16]: 19%
- Plasma Sodium During [3, 16]: 140 mEq/L
- Serum Creatinine % Change [3, 16]: −54%
- Serum Creatinine During [3, 16]: 90 µM
- Serum Urea % Change [3, 16]: −68%
- Serum Urea During [3, 16]: 6.6 mmol/L
- Urinary Na over 24 hours % Change [3, 16]: 1869%
- Urinary Na over 24 hours During [3, 16]: 315 mEq/24 hr
- Body Weight After [3, 16]: 68 kg
- Plasma Sodium After [3, 16]: 131 mEq/L
- Serum Creatinine After [3, 16]: 137 µM
- Serum Urea After [3, 16]: 10.0 mmol/L
- Body Weight % Change [3, 17]: −14%
- Body Weight During [3, 17]: 55 kg
- Paracenteses/Month % Change [3, 17]: −100%
- Paracenteses/Month During [3, 17]: 0 /Month
- Volume Fluid Removed/Month % Change [3, 17]: −100%
- Volume Fluid Removed/Month During [3, 17]: 0 L
- overall average decrease of urea concentration in blood serum ([3]; all patients, during treatment): 45%
- reduction of average monthly ascites fluid volume removed ([3]; during continuous infusion therapy vs prior to initiation): 55%
- decrease of average body weight per patient ([3]; during therapy, proxy for ascitic fluid accumulation): 11% and 9 kg and ~19.8 lbs
- improvement of ascites seen without diuretics ([3]; during treatment, number of patients): four of six patients
- plasma sodium after the cessation of therapy ([3]; patient #6): remained normal
- correction of severe hyponatremia ([3]; patients #4 and #6): corrected severe hyponatremia in two patients
- average urinary sodium after starting therapy ([3]; three of six patients with data before and after starting continuous infusion, increased from 7): 127 mEq/24 h
- average decrease in serum creatinine levels ([3]; treated group of patients): 47%
- half-life [4]: 26 min
